The test system of one series is exon 6 of the IL2RG gene. As to the kind of experiment: On-target cleavage efficiency (INDEL, TIDES protocol) of IL2RG gRNAs. The note with it: primary human CD3+ T cells; one day post-editing; 3 independent experiments. Format: cell-based.
The subject of series [1] is off-target sites in primary human CD3+ cells. Briefly: GUIDE-seq off-target analysis of IL2RG gRNAs.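 For all read-outs here: Cas9 RNP plus double-stranded oligonucleotide nucleofected into CD3+ T cells, capture sites found by sequencing, sites also seen in RNP-free control cells discarded.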 The series is classed as cell-based. The note with it: for On-Target Read Count / on-target/off-target profile (GUIDE-seq) / GUIDE-seq Off-Targets / Present in Multiple Replicates: CD3+ T cells; for on-target/off-target profile (GUIDE-seq): multiple independent cell sample replicates; for GUIDE-seq Off-Targets: number of sites; for Present in Multiple Replicates: off-target sites found in at least 2 cell sample replicates.

In series [2] the test system is primary human CD8+ or CD3+ T cells. As to the kind of experiment: Cell viability and total cell counts after Cas9/gRNA RNP editing. The note with it: day two post-editing.
Series [3] deals with TCR and CD3 expression in CD8+ and CD3+ T cells. Briefly: TCR and CD3 expression by flow cytometry after TRAC editing. Format: cell-based, human. The note with it: day seven post-editing. Background: Flow cytometry measures light scatter and fluorescence of single cells or particles in a stream.
For another series, the system named is TRAC gene. As to the kind of experiment: On-target cleavage efficiency (INDEL, TIDES protocol) of TRAC gRNAs. The note with it: day two post-editing, 2 independent experiments.

For “GC10: sgRNA targeting IL2RG exon 6, spacer 5′-AAGGCTGATAATCAATCCCA-3′ (spacer only, sgRNA scaffold lacks entry, further chemistry not given here)”, in the series on exon 6 of the IL2RG gene, the “Average INDEL Frequency (%)” value is listed as 71.77%. Moreover, the “On-Target Read Count” value in series [1] came out at 5384. Also, the “on-target/off-target profile (GUIDE-seq)” value in series [1] was “generally favorable”. For the same substance, the “GUIDE-seq Off-Targets” value in series [1] came out at 1227. In series [1], the “Present in Multiple Replicates” value stood at 14. Further, the Off-Target/On-Target in series [1] (site chr3 108840645, Intronic, TRAT1) came to 3.05%; in series [1] (site chr5 159185831, Intronic, RNF145), 0.20%; in series [1] (site chr12 62289934, Intronic, USP15), 0.48%; in series [1] (site chr21 17142630, Intergenic), 0.71%; in series [1] (site chrUn_KI270438v1 104161), 1.60%; in series [1] (site chrUn_KI270438v1 104938), 0.28%. In addition, the Off-Target/On-Target in series [1] (site chrUn_KI270438v1 109447) came to 0.39%; in series [1] (site chrUn_KI270467v1 2297), 0.17%; in series [1] (site chrUn_KI270467v1 2459) it was 0.17%; in series [1] (site chrUn_KI270467v1 2622), 0.48%; in series [1] (site chrUn_KI270467v1 2830), 0.13%; in series [1] (site chrUn_KI270467v1 3365), 0.26%.
For “GC1: sgRNA targeting IL2RG exon 6, spacer 5′-ACCAGTGCCTGGCATGTAGT-3′ (spacer only, sgRNA scaffold lacks entry, further chemistry not given here)”, the “Average INDEL Frequency (%)” value in the series on exon 6 of the IL2RG gene amounted to 46.43%.
The same measure, in the same setting: for “GC3: sgRNA targeting IL2RG exon 6, spacer 5′-CAGTGCCTGGCATGTAGTAG-3′ (spacer only, sgRNA scaffold lacks entry, further chemistry not given here)” the value was 77.53%.
With “GC12: sgRNA targeting IL2RG exon 6, spacer 5′-CCACGGCTTCCAATGCAAAC-3′ (spacer only, sgRNA scaffold lacks entry, further chemistry not given here)”, the “Average INDEL Frequency (%)” value in the series with exon 6 of the IL2RG gene was 58.43%. Besides, in series [1], the “On-Target Read Count” value stood at 2352, the “on-target/off-target profile (GUIDE-seq)” value is recorded as “generally favorable”, the “GUIDE-seq Off-Targets” value worked out at 1368 and the “Present in Multiple Replicates” value stood at 4. The Off-Target/On-Target in series [1] (site chr13 18212170, Intronic, FAM230C) was found to be 1.02%. Besides, the Off-Target/On-Target in series [1] (site chrUn_KI270467v1 2459) is 0.77%. The Off-Target/On-Target in series [1] (site chrUn_KI270467v1 2660) is given as 0.34%. Moreover, the Off-Target/On-Target in series [1] (site chrUn_KI270590v1 2621) is recorded as 0.38%.
“GC5: sgRNA targeting IL2RG exon 6, spacer 5′-GAATCCTTTCCTGTTTGCAT-3′ (spacer only, sgRNA scaffold lacks entry, further chemistry not given here)”: the “Average INDEL Frequency (%)” value in the series on exon 6 of the IL2RG gene was 13.03%.
“GC6: sgRNA targeting IL2RG exon 6, spacer 5′-CCTGTTTGCATTGGAAGCCG-3′ (spacer only, sgRNA scaffold lacks entry, further chemistry not given here)”: in the series with exon 6 of the IL2RG gene, the “Average INDEL Frequency (%)” value is 14.80%.
The same measure, in the same setting: for “GC13: sgRNA targeting IL2RG exon 6, spacer 5′-GCTTCCAATGCAAACAGGAA-3′ (spacer only, sgRNA scaffold lacks entry, further chemistry not given here)” the value was 35.60%; for “GC15: sgRNA targeting IL2RG exon 6, spacer 5′-TTGTGCCCCTACTACATGCC-3′ (spacer only, sgRNA scaffold lacks entry, further chemistry not given here)”, 46.77%.
Take “GC8: sgRNA targeting IL2RG exon 6, spacer 5′-GGTTATCTCTGTTGGCTCCA-3′ (spacer only, sgRNA scaffold lacks entry, further chemistry not given here)”: in the series with exon 6 of the IL2RG gene, the “Average INDEL Frequency (%)” value amounted to 66.40%. For the same substance, in series [1], the “On-Target Read Count” value is on record as 4348, the “on-target/off-target profile (GUIDE-seq)” value is recorded as “generally favorable”, the “GUIDE-seq Off-Targets” value is 930 and the “Present in Multiple Replicates” value is 3. Also, the Off-Target/On-Target in series [1] (site chr1 125180094, Intergenic) is 1.54%. In series [1] (site chr16 46390807, Intergenic), the Off-Target/On-Target is 0.14%. For the same substance, the Off-Target/On-Target in series [1] (site chr16 46399022, Intergenic) was determined as 0.46%.
Turning to “GC2: sgRNA targeting IL2RG exon 6, spacer 5′-CCAGTGCCTGGCATGTAGTA-3′ (spacer only, sgRNA scaffold lacks entry, further chemistry not given here)”, the “Average INDEL Frequency (%)” value with exon 6 of the IL2RG gene is listed as 74.67%.
Turning to “TRAC 2: sgRNA targeting TRAC, spacer 5′-AGAGCAACAGTGCTGTGGCC-3′ (spacer only; sgRNA scaffold lacks entry; TRAC gRNA spacer, TRAC 2)”, the “Cell Viability (%)” value was 80% in series [2] (CD3+ T cells) and 88.5% in series [2] (CD8+ T cells).
As for “TRAC 2: sgRNA targeting TRAC, spacer 5′-AGAGCAACAGTGCTGTGGCC-3′ (spacer only, sgRNA scaffold lacks entry, chemistry not fully specified)”, the “CD3+ cells (%)” value stood at 43.17% in series [3] (CD3+ T cells) and 24.34% in series [3] (CD8+ T cells). The “TCR+ cells (%)” value in series [3] (CD3+ T cells) came out at 8.63%; in series [3] (CD8+ T cells), 8.1%. In addition, the figures for the Cell count in series [2] (CD3+ T cells) and in series [2] (CD8+ T cells) were 7.77E+05 and 7.84E+05, respectively. For the same substance, the entries for the “INDEL Frequency (%)” value with TRAC gene (CD3+ T cells) and with TRAC gene (CD8+ T cells) were 53.85% and 59.5%, respectively.
For the substance “GC7: sgRNA targeting IL2RG exon 6, spacer 5′-GAAGCCGTGGTTATCTCTGT-3′ (spacer only, sgRNA scaffold lacks entry, further chemistry not given here)”, the “Average INDEL Frequency (%)” value in the series with exon 6 of the IL2RG gene worked out at 31.07%.
Turning to “GC14: sgRNA targeting IL2RG exon 6, spacer 5′-TAGAAAAAAGAAAAGCAAAG-3′ (spacer only, sgRNA scaffold lacks entry, further chemistry not given here)”, the “Average INDEL Frequency (%)” value with exon 6 of the IL2RG gene came out at 28.23%.
On the same count and under the same terms, to “GC11: sgRNA targeting IL2RG exon 6, spacer 5′-GGAGCCAACAGAGATAACCA-3′ (spacer only, sgRNA scaffold lacks entry, further chemistry not given here)” belongs 15.60%.
The same measure, in the same setting: for “GC4: sgRNA targeting IL2RG exon 6, spacer 5′-GTAGGGGCACAACAAATATA-3′ (spacer only, sgRNA scaffold lacks entry, further chemistry not given here)” the value was 41.07%; for “GC9: sgRNA targeting IL2RG exon 6, spacer 5′-GTTATCTCTGTTGGCTCCAT-3′ (spacer only, sgRNA scaffold lacks entry, further chemistry not given here)”, 31.37%.
